These results are taken from ChEMBL document CHEMBL1641527, “Design and synthesis of aryl ether and sulfone hydroxamic acids as potent histone deacetylase (HDAC) inhibitors” (Bioorg Med Chem Lett, 2011).

The test is described as follows: Inhibition of HDAC by [3H]acetate-radiolabelled peptide substrate assay with scintillation counting.

Molecule `CC(/C=C/C(=O)O)=C\C(C)Oc1cccc(Cl)c1` (stereo not drawn) returned an IC50 of over 1 µM. Consider `CC(/C=C/C(=O)O)=C\C(C)Oc1ccc(Br)cc1Br` (stereo not drawn), for which the IC50 is over 1 µM. As to `CC(/C=C/C(=O)O)=C\COc1cccc(-c2ccccc2)c1`, the IC50 is over 1 µM. The figure for `CC(/C=C/C(=O)O)=C\C(C)Oc1cccc(-c2ccccc2)c1` (stereo not drawn) is over 1 µM; for `CC(/C=C/C(=O)O)=C\C(C)Oc1cccc(Cc2ccccc2)c1` (stereo not drawn) it is over 50 µM; for `COc1ccc(OC/C=C(C)/C=C/C(=O)O)cc1` it is over 1 µM. The figure for `CC(/C=C/C(=O)O)=C\C(C)Oc1cccc(C(F)(F)F)c1` (stereo not drawn) is over 50 µM; for `CCCCCCOc1ccc(OC(C)/C=C(C)/C=C/C(=O)O)cc1` (stereo not drawn) it is over 1 µM; for `CC(/C=C/C(=O)O)=C\COc1cccc2c1CCCC2` it is over 1 µM.

Molecule `CC(/C=C/C(=O)O)=C\C(C)Oc1cccc2c1CCCC2` (stereo not drawn) registered an IC50 of over 50 µM. The figure for `CC(/C=C/C(=O)O)=C\COc1ccc(C(C)C)cc1` is over 1 µM; for `CC(/C=C/C(=O)O)=C\C(C)Oc1ccc(C(C)C)cc1` (stereo not drawn) it is over 50 µM.

Molecule `CC(/C=C/C(=O)NO)=C\COc1cccc(Cl)c1` showed an IC50 of 0.188 µM. The figure for `CC(/C=C/C(=O)NO)=C\COc1ccc(Br)cc1Br` is 0.89 µM; for `CC(/C=C/C(=O)NO)=C\COc1cccc(-c2ccccc2)c1` it is 0.041 µM. Take `CC(/C=C/C(=O)NO)=C\C(C)Oc1cccc(-c2ccccc2)c1` (stereo not drawn): the IC50 was 0.055 µM.

Molecule `CC(/C=C/C(=O)NO)=C\COc1cccc(Cc2ccccc2)c1` came in with an IC50 of 1.2 µM.

`COc1ccc(OC/C=C(C)/C=C/C(=O)NO)cc1` showed an IC50 of 0.068 µM. `CC(/C=C/C(=O)NO)=C\COc1cccc(C(F)(F)F)c1` yielded an IC50 of 0.018 µM. The figure for `COc1ccc2ccc(OC/C=C(C)/C=C/C(=O)NO)cc2c1` is 0.02 µM; for `CCCCCCOc1ccc(OC(C)/C=C(C)/C=C/C(=O)NO)cc1` (stereo not drawn) it is 1.1 µM. The same measure for `CC(/C=C/C(=O)NO)=C\C(C)Oc1ccc(-c2ccc(Br)cc2)cc1` (stereo not drawn): 0.162 µM; for `CC(=O)c1ccc(OC(C)/C=C(C)/C=C/C(=O)NO)cc1` (stereo not drawn): over 50 µM. In turn, `CC(/C=C/C(=O)O)=C\C(C)S(=O)(=O)c1ccc(Br)cc1` (stereo not drawn) gave an IC50 of over 1 µM. The same measure for `CC(/C=C/C(=O)O)=C\C(C)S(=O)(=O)c1ccc(Cl)cc1` (stereo not drawn): over 1 µM; for `CC(/C=C/C(=O)O)=C\C(C)S(=O)(=O)c1ccc(F)cc1` (stereo not drawn): over 1 µM; for `CC(/C=C/C(=O)O)=C\C(C)S(=O)(=O)c1ccc(C)c(C)c1` (stereo not drawn): over 1 µM. The figure for `CC(/C=C/C(=O)O)=C\C(C)S(=O)(=O)c1ccc(C)cc1C` (stereo not drawn) is over 1 µM; for `CC(/C=C/C(=O)NO)=C\C(C)S(=O)(=O)c1ccc(Br)cc1` (stereo not drawn) it is over 1 µM. Take `CC(/C=C/C(=O)NO)=C\C(C)S(=O)(=O)c1ccc(C)cc1` (stereo not drawn): the 50% inhibitory concentration (IC50) is over 1 µM. The same measure for `COc1ccc(S(=O)(=O)C(C)/C=C(C)/C=C/C(=O)NO)cc1` (stereo not drawn): over 1 µM; for `CC(=O)Nc1ccc(S(=O)(=O)C(C)/C=C(C)/C=C/C(=O)NO)cc1` (stereo not drawn): over 1 µM; for `COc1cccc(S(=O)(=O)C(C)/C=C(C)/C=C/C(=O)NO)c1` (stereo not drawn): over 1 µM. The figure for `CC(/C=C/C(=O)NO)=C\C(C)S(=O)(=O)c1ccc(Cl)c(Cl)c1` (stereo not drawn) is over 1 µM; for `CC(/C=C/C(=O)NO)=C\C(C)S(=O)(=O)c1cnc2cc(C)ccc2c1` (stereo not drawn) it is over 1 µM; for `CC(/C=C/C(=O)NO)=C\C(C)S(=O)(=O)c1cn(C)cn1` (stereo not drawn) it is over 1 µM. With `CC(/C=C/C(=O)NO)=C\C(C)S(=O)(=O)c1nc(C)cc(C)n1` (stereo not drawn), the half-maximal inhibitory concentration (IC50) is over 1 µM. Consider `CC(/C=C/C(=O)NO)=C\[C@@H](C)C(=O)c1ccc(N(C)C)cc1` [TRICHOSTATIN], for which the IC50 stood at 0.003 µM.
